Data published in US9260439B2, “Dihydropyrrolopyrimidine derivatives” (PFIZER INC., priority 2014, dated 2016).

Molecular target: full-length PI3Kα (full-length p110α/p85α) (Homo sapiens (Human), UniProt P42336)
Experiment: PI3KA_FL fluorescence polarization kinase assay (Ki)
Type: biochemical
Conditions: 41 μM ATP
From the text: Enzyme Production for Biochemical Assays: 1) PI3Kα Complex (Full Length p110α and p85α)(“PI3KA_FL”)
Genes encoding for full length p110α and p85α subunits of PI3Kα complex were subcloned from existing constructs into pFASTBAC Dual vector (Life Technologies, Carlsbad, Calif.) using standard cloning procedures. Gene encoding p110α subunit was subcloned into polyhedrine promoter while gene encoding p85α subunit was subcloned into p10 promoter. Additionally, sequence encoding for histidine tag and Tobacco Etch Virus (“TEV”) cleavage site preceded p110α ORF (Open Reading Frame). Recombinant baculovirus was generated using Bac-to-Bac protocol (Life Technologies, Carlsbad, Calif.) and large scale expression was conducted in Sf21 (Life Technologies, Carlsbad, Calif.) cells at a multiplicity of infection (“MOI”)=1 for 72 hours. Cells were lyzed in 50 mM Tris pH 8.0, 250 mM NaCl, 5% glycerol, 0.25 mM TCEP, and 20 mM imidazole. The PI3Kα complex was purified from clarified supernatant using Immobilized Metalo Affinity Chromatography (“IMAC”). The protein was eluted from the column using 50 mM Tris pH 8.0, 200 mM NaCl, 5% glycerol, 0.25 mM TCEP, and 200 mM imidazole, and further desalted into 50 mM Tris pH 8.0, 20 mM NaCl, and 0.25 mM TCEP prior to loading on MonoQ sepharose (GE Healthcare, Piscataway, N.J.). PI3Kα complex was eluted from MonoQ sepharose over 20 column volumes using 0-30% gradient of buffer B (50 mM Tris pH 8.0, 1 M NaCl, and 0.25 mM TCEP). The peak fractions were pulled together and loaded on Superdex 200 26/60 SEC column equilibrated in 50 mM Tris pH 8.0, 200 mM NaCl, and 0.5 mM TCEP. […] Purity and integrity of the complex was confirmed using LCMS, analytical SEC and SDS-PAGE (sodium dodecyl sulfate polyacrylamide gel electrophoresis) analysis.
The biochemical assays of kinase activity of full-length PI3Kα (full-length p110α/p85a) or truncated PI3Kα (p110α/iSH2 p85a) were conducted using a fluorescence polarization format similar to the procedure of Yuan J., et al., (2011) “PF-04691502, a Potent and Selective Oral Inhibitor of PI3K and mTOR Kinases with Antitumor Activity”, Mol Cancer Ther. 10, 2189-2199. The enzymatic reactions were conducted in 50 μL volumes in 96-well plates. The reactions contained human recombinant PI3Kα (2 nM full-length p110α/p85α or 0.5 nM p110α/iSH2 p85) and 30 μM phosphatidylinositol 4,5-bisphosphate (“PIP2”) (Cayman Chemical Company, Ann Arbor, Mich.) and were sonicated for 1 minute prior to adding PI3Kα enzyme (PI3KA_Act or PI3KA_FL), DMSO or test compound (12-point 3-fold serial dilution, 3 μM top dose, 2° A) DMSO final concentration), 5 mM MgCl2, 50 mM HEPES pH 7.4, 150 mM NaCl, 1 mM DTT ((2S,3S)-1,4-bis(sulfanyl)butane-2,3-diol), and 0.05% 3-[(3-cholamidopropyl)dimethylammonio]-1-propanesulfonate (“CHAPS”). […] The reactions were incubated for 30 min at room temperature, stopped with EDTA pH 8 (10 mM final concentration). In a detection plate, 15 μL of detector/probe mixture, containing 480 nM GST-Grp1 PH domain protein (University of Dundee, Dundee, UK) and 12 nM carboxytetramethylrhodamine (“TAMRA”)-tagged fluorescent phosphatidylinositol (3,4,5)-triphosphate (“PIP3”) (Echelon Biosciences, Inc., Salt Lake City, Utah) in assay buffer, was mixed with 15 μL of kinase reaction mixture. The plate was shaken for 30 minutes and fluorescence polarization values were measured on an LJL Analyst HT plate reader (Molecular Devices, Sunnyvale, Calif.). […] The inhibition constants (Ki) were calculated by fitting fluorescence polarization values, corresponding to initial reaction rates, to the Morrison equation (Morrison, J. F. (1969) Kinetics of the reversible inhibition of enzyme catalysed reactions by tight-binding inhibitors. Biochim. Biophys. Acta 185, 269-286) for tight-binding competitive inhibitors using non-linear regression method (GraphPad Prism, GraphPad Software, San Diego, Calif.).

full-length PI3Kα (full-length p110α/p85α), sequence (P42336 whole entry): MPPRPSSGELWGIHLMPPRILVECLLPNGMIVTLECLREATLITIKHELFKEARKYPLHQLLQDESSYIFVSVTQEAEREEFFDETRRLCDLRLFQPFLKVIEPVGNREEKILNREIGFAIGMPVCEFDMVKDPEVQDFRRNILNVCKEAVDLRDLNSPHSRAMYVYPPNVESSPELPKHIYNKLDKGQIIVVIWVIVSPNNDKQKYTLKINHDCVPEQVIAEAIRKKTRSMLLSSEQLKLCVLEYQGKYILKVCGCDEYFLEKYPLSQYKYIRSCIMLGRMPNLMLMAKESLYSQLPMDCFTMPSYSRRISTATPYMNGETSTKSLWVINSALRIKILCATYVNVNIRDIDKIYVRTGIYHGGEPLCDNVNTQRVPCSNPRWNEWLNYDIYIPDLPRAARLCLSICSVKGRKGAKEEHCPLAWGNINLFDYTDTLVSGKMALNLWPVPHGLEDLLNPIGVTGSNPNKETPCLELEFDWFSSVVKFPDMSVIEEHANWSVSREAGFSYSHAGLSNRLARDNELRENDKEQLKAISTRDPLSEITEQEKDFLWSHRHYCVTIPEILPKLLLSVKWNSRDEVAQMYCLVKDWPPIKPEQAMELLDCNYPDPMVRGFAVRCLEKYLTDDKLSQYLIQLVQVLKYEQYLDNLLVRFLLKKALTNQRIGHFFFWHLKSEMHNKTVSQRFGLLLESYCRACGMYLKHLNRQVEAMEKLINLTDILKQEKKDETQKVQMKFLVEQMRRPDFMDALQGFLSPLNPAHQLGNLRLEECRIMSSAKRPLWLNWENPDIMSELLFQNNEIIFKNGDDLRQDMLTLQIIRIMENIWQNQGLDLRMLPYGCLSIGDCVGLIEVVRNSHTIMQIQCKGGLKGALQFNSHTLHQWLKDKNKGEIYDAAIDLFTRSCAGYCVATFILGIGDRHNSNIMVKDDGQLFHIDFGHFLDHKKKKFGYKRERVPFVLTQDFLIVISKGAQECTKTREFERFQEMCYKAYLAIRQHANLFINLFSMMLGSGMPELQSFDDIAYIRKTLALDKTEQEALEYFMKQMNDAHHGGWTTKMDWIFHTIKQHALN
full-length PI3Kα (full-length p110α/p85α), sequence (P27986 whole entry partner): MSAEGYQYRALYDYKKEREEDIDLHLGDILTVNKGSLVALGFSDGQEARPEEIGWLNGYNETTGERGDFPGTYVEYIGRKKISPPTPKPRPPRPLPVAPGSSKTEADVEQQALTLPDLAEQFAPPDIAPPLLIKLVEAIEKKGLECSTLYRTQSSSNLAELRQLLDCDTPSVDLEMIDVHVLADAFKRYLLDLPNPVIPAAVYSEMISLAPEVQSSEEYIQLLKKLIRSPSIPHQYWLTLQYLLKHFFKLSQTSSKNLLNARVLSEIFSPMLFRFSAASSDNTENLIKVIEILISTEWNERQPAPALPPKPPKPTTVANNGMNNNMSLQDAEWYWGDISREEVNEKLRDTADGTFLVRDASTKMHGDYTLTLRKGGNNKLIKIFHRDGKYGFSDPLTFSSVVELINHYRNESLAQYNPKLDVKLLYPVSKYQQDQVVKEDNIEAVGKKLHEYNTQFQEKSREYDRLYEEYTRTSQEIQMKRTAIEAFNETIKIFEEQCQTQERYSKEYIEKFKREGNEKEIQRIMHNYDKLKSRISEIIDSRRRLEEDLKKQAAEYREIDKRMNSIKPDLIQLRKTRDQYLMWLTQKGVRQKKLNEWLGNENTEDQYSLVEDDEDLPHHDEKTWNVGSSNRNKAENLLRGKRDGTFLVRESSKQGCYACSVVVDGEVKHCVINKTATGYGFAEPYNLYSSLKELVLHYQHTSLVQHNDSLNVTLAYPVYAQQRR

With C[C@H](O)C(=O)N1CC[C@H](N2CCc3c(-c4cnc(N)nc4)nc(N4CCOCC4)nc32)C1 [Example 30] the “PI3KA_FL Ki” value was 1.188 nM.
For CC(C)[C@@H](O)C(=O)N1CC[C@H](N2CCc3c(-c4cnc(N)nc4)nc(N4CCOCC4)nc32)C1 [Example 31], the “PI3KA_FL Ki (nM)” value was “≦0.229 nM”.
For CC(C)[C@H](O)C(=O)N1CC[C@H](N2CCc3c(-c4cnc(N)nc4)nc(N4CCOCC4)nc32)C1 [Example 32], the “PI3KA_FL Ki” value was 0.841 nM.
In the case of CC(=O)N1CC(N2CCc3c(-c4cnc(N)nc4)nc(N4CCOCC4)nc32)C1 [Example 33], the “PI3KA_FL Ki” value is reported as 5.195 nM.
For CO[C@H]1CC[C@H](N2CCc3c(-c4cnc(N)nc4)nc(N4CCOCC4)nc32)CC1 [Example 36], the “PI3KA_FL Ki” value was 19.031 nM.
For C[C@]1(O)C[C@H](N2CCc3c(-c4cnc(N)nc4)nc(N4CCOCC4)nc32)C1 [Example 39], the “PI3KA_FL Ki” value was 0.738 nM.
For CO[C@H]1C[C@H](N2CCc3c(-c4cnc(N)nc4)nc(N4CCOCC4)nc32)C1 [Example 40], the “PI3KA_FL Ki” value was 0.416 nM.
For C[C@@H](O)C(=O)N1CC[C@H](N2CCc3c(-c4cnc(N)nc4)nc(N4CCOCC4)nc32)C1 [Example 41], the “PI3KA_FL Ki” value was 1.376 nM.
With CC(=O)N[C@H]1C(C)(C)[C@@H](N2CCc3c(-c4cnc(N)nc4)nc(N4CCOCC4)nc32)C1(C)C [Example 42] the “PI3KA_FL Ki” value was 7.677 nM.
Nc1ncc(-c2nc(N3CCOCC3)nc3c2CCN3[C@H]2CCN(C=O)C2)cn1 [Example 43] was tested, and the “PI3KA_FL Ki” value was 1.310 nM.
In the case of C[C@]1(O)C[C@@H](N2CCc3c(-c4cnc(N)nc4)nc(N4CCOCC4)nc32)C1 [Example 44], the “PI3KA_FL Ki” value is reported as 1.965 nM.
For Nc1ncc(-c2nc(N3CCOCC3)nc3c2CCN3[C@H]2CCCOC2)cn1 [Example 47], the “PI3KA_FL Ki” value was 3.320 nM.
For Nc1ncc(-c2nc(N3CCOCC3)nc3c2CCN3[C@@H]2CCCOC2)cn1 [Example 48], the “PI3KA_FL Ki” value was 3.543 nM.
For CN([C@H]1C[C@@H](N2CCc3c(-c4cnc(N)nc4)nc(N4CCOCC4)nc32)C1)S(C)(=O)=O [Example 49], the “PI3KA_FL Ki” value was 0.722 nM.
With CC(=O)N[C@@H]1CC[C@H]1N1CCc2c(-c3cnc(N)nc3)nc(N3CCOCC3)nc21 [Example 50] the “PI3KA_FL Ki” value was 18.596 nM.
With CC(=O)N1C[C@@H](N2CCc3c(-c4cnc(N)nc4)nc(N4CCOCC4)nc32)[C@@H](C)C1 [Example 52] the “PI3KA_FL Ki” value was 2.799 nM.
In the case of Nc1ncc(-c2nc(N3CCOCC3)nc3c2CCN3[C@H]2C[C@H](C(N)=O)C2)cn1 [Example 53], the “PI3KA_FL Ki” value is reported as 0.774 nM.
In the case of CC(=O)N1CCC[C@H](N2CCc3c(-c4cnc(N)nc4)nc(N4CCOCC4)nc32)C1 [Example 54], the “PI3KA_FL Ki” value is reported as 8.634 nM.
With CC(=O)N1CCC[C@@H](N2CCc3c(-c4cnc(N)nc4)nc(N4CCOCC4)nc32)C1 [Example 55] the “PI3KA_FL Ki” value was 3.904 nM.
With CC(=O)N1C[C@H](C(F)F)[C@H](N2CCc3c(-c4cnc(N)nc4)nc(N4CCOCC4)nc32)C1 [Example 56] the “PI3KA_FL Ki” value was 35.745 nM.
NC(=O)N1CC[C@H](N2CCc3c(-c4cnc(N)nc4)nc(N4CCOCC4)nc32)C1 [Example 58] was tested, and the “PI3KA_FL Ki” value was 0.794 nM.
In the case of CC(=O)N1C[C@@H](C(F)F)[C@@H](N2CCc3c(-c4cnc(N)nc4)nc(N4CCOCC4)nc32)C1 [Example 60], the “PI3KA_FL Ki” value is reported as 27.752 nM.
In the case of Nc1ncc(-c2nc(N3CCOCC3)nc3c2CCN3C2CN(C=O)C2)cn1 [Example 62], the “PI3KA_FL Ki” value is reported as 0.888 nM.
With CC(=O)N1C[C@@H](N2CCc3c(-c4cnc(N)nc4)nc(N4CCOCC4)nc32)[C@H](C(F)F)C1 [Example 63] the “PI3KA_FL Ki” value was 6.612 nM.
In the case of Nc1ncc(-c2nc(N3CCOCC3)nc3c2CCN3[C@H]2C[C@@H](F)C2)cn1 [Example 64], the “PI3KA_FL Ki” value is reported as 0.508 nM.
With Nc1ncc(-c2nc(N3CCOCC3)nc3c2CCN3[C@H]2C[C@H](F)C2)cn1 [Example 65] the “PI3KA_FL Ki (nM)” value was “≦0.229 nM”.
In the case of CC(=O)N1C[C@@H](C)[C@@H](N2CCc3c(-c4cnc(N)nc4)nc(N4CCOCC4)nc32)C1 [Example 68], the “PI3KA_FL Ki” value is reported as 9.393 nM.
For CC(=O)N[C@H]1CC[C@@H]1N1CCc2c(-c3cnc(N)nc3)nc(N3CCOCC3)nc21 [Example 70], the “PI3KA_FL Ki” value was 4.601 nM.
With CC(=O)N1C[C@H](C(F)F)[C@@H](N2CCc3c(-c4cnc(N)nc4)nc(N4CCOCC4)nc32)C1 [Example 71] the “PI3KA_FL Ki” value was 8.899 nM.
Nc1ncc(-c2nc(N3CCOCC3)nc3c2CCN3[C@@H]2CCNC(=O)C2)cn1 [Example 77] was tested, and the “PI3KA_FL Ki” value was 8.025 nM.
For Nc1ncc(-c2nc(N3CCOCC3)nc3c2CCN3[C@H]2CCNC(=O)C2)cn1 [Example 78], the “PI3KA_FL Ki” value was 14.681 nM.
In the case of CS(=O)(=O)N1CC[C@@H](N2CCc3c(-c4cnc(N)nc4)nc(N4CCOCC4)nc32)C1 [Example 80], the “PI3KA_FL Ki” value is reported as 1.247 nM.
For CNS(=O)(=O)N1CC[C@@H](N2CCc3c(-c4cnc(N)nc4)nc(N4CCOCC4)nc32)C1 [Example 81], the “PI3KA_FL Ki” value was 0.788 nM.
With C[C@H]1COCCN1c1nc(-c2cnc(N)nc2)c2c(n1)N([C@@H]1CCN(S(C)(=O)=O)C1)CC2 [Example 83] the “PI3KA_FL Ki” value was 0.761 nM.
With Nc1ncc(-c2nc(N3CCOCC3)nc3c2CCN3[C@@H]2CCN(S(N)(=O)=O)C2)cn1 [Example 84] the “PI3KA_FL Ki” value was 3.507 nM.
With NC(=O)N1CC(N2CCc3c(-c4cnc(N)nc4)nc(N4CCOCC4)nc32)C1 [Example 86] the “PI3KA_FL Ki” value was 3.673 nM.
In the case of C[C@H]1COCCN1c1nc(-c2cnc(N)nc2)c2c(n1)N(C1CC(F)(F)C1)CC2 [Example 87], the “PI3KA_FL Ki” value is reported as 0.462 nM.
For C[C@H]1COCCN1c1nc(-c2cnc(N)nc2)c2c(n1)N([C@H]1C[C@H](N(C)S(C)(=O)=O)C1)CC2 [Example 90], the “PI3KA_FL Ki” value was 0.403 nM.
With CNS(=O)(=O)N1CCC[C@H](N2CCc3c(-c4cnc(N)nc4)nc(N4CCOCC4)nc32)C1 [Example 91] the “PI3KA_FL Ki” value was 1.472 nM.
In the case of CC(C)[C@@H](O)C(=O)N(C)[C@H]1C[C@H](N2CCc3c(-c4cnc(N)nc4)nc(N4CCOC[C@@H]4C)nc32)C1 [Example 94], the “PI3KA_FL Ki” value is reported as 2.371 nM.
For CC(=O)N1CC[C@H](N2CCc3c(-c4cnc(N)nc4)nc(N4CCOC[C@@H]4C)nc32)C1 [Example 96], the “PI3KA_FL Ki” value was 2.093 nM.
CNS(=O)(=O)N1CCC[C@@H](N2CCc3c(-c4cnc(N)nc4)nc(N4CCOCC4)nc32)C1 [Example 97] was tested, and the “PI3KA_FL Ki” value was 3.632 nM.
CO[C@@H]1CN(C(C)=O)C[C@H]1N1CCc2c(-c3cnc(N)nc3)nc(N3CCOC[C@@H]3C)nc21 [Example 98] was tested, and the “PI3KA_FL Ki” value was 1.244 nM.
With CS(=O)(=O)N1CCC[C@H](N2CCc3c(-c4cnc(N)nc4)nc(N4CCOCC4)nc32)C1 [Example 99] the “PI3KA_FL Ki” value was 2.122 nM.
With CO[C@@H]1CN(S(C)(=O)=O)C[C@H]1N1CCc2c(-c3cnc(N)nc3)nc(N3CCOC[C@@H]3C)nc21 [Example 103] the “PI3KA_FL Ki” value was 0.557 nM.
With CS(=O)(=O)N[C@H]1C[C@@H](N2CCc3c(-c4cnc(N)nc4)nc(N4CCOCC4)nc32)C1 [Example 107] the “PI3KA_FL Ki” value was 1.388 nM.
CN(C)S(=O)(=O)N1CC(N2CCc3c(-c4cnc(N)nc4)nc(N4CCOCC4)nc32)C1 [Example 110] was tested, and the “PI3KA_FL Ki” value was 0.735 nM.
With CCS(=O)(=O)N1CC[C@@H](N2CCc3c(-c4cnc(N)nc4)nc(N4CCOCC4)nc32)C1 [Example 112] the “PI3KA_FL Ki” value was 0.491 nM.
With CS(=O)(=O)[C@H]1CC[C@@H](N2CCc3c(-c4cnc(N)nc4)nc(N4CCOCC4)nc32)C1 [Example 114] the “PI3KA_FL Ki” value was 1.268 nM.
In the case of CC(C)S(=O)(=O)N1CC(N2CCc3c(-c4cnc(N)nc4)nc(N4CCOCC4)nc32)C1 [Example 116], the “PI3KA_FL Ki” value is reported as 0.961 nM.
